Experimental data as given in ChEMBL document CHEMBL1781983, “Hop (Humulus lupulus)-derived bitter acids as multipotent bioactive compounds” (J Nat Prod, 2009).
pIC50: −log10 of the molar value.

Key:
[1] = Antiangiogenic activity against bFGF-indeced mouse KOP2.16 cells assessed as reduction in cell growth at 10 uM; format: functional
[2] = Antioxidant activity assessed as inhibition of lipid peroxidation; format: functional
Mus musculus [3] = experiment: Antiinflammatory activity in mouse assessed as inhibition of TPA-induced ear edema measured per ear; format: functional
[4] = target: T1, Prostaglandin G/H synthase 2 (Mus musculus, UniProt Q05769); experiment: Inhibition of COX2-mediated PGE2 production in TNF-alpha-induced mouse MC3T3-E1 cells
T1 sequence (Q05769 whole entry): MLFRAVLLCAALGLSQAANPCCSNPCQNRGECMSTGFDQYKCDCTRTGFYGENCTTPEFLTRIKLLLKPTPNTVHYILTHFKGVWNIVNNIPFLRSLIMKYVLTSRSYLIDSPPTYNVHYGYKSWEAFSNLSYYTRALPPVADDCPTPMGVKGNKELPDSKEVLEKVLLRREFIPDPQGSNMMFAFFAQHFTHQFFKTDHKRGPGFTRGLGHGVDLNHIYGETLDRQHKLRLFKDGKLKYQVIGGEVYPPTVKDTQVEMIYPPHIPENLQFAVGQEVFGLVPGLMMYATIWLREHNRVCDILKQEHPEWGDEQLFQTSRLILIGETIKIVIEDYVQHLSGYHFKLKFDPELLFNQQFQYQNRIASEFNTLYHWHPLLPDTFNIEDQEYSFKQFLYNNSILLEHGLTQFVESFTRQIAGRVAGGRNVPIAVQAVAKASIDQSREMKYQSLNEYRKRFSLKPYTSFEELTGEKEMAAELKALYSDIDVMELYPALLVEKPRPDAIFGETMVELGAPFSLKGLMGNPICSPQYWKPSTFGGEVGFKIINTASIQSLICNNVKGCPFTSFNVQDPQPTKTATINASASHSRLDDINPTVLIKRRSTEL

Osteoclast = experiment: Inhibition of osteoporotic lesion formation in ICR mouse osteoclasts bone cells using ivory pieces after 2 days by pit formation assay; format: functional, cell-based; conditions: 48 h
[5] = Antioxidant activity in human RBC assessed as inhibition of hydrogen peroxide-induced hemolysis after 3 hrs; format: functional, cell-based; conditions: erythrocyte
Chorioallantoic membrane = experiment: Inhibition of angiogenesis in chick embryo chorioallantoic membranes; format: functional; conditions: Gallus gallus
U-937 = experiment: Antiproliferative activity against human U937 cells
[6] = system: Radical scavenging activity; experiment: Antioxidant activity assessed as DPPH radical scavenging activity; format: functional
Mus musculus [7] = experiment: Antiangiogenic activity in mouse at 0.01%, po for 21 days; format: functional

Row | pIC50 [2] | pIC50 [4] | pIC50 (Osteoclast) | pIC50 (U-937) | pIC50 [6] | Compound | inhibition at 10 µM [1] [%] | ID50 (Mus musculus [3]) [mg] | pIC50 [5] | ED50 (Chorioallantoic membrane) [µg] | inhibition (INH) (Mus musculus [7]) [%]
1 | 5.10 | 7.52 | 8.23 | 5.47 | 4.49 | CC(C)=CCC1C(=O)C(C(=O)CC(C)C)=C(O)C(O)(CC=C(C)C)C1=O (centres undefined) [HUMULONE] | 20 | 0.2 | 4.55 | 1.5 | –
2 | – | – | – | – | – | C[C@]12CCC(=O)C=C1CC[C@@H]1[C@@H]2[C@@H](O)C[C@@]2(C)[C@H]1CC[C@]2(O)C(=O)CO [HYDROCORTISONE] | – | 0.03 | – | – | –
3 | – | – | – | – | – | COc1ccc2c(c1)c(CC(=O)O)c(C)n2C(=O)c1ccc(Cl)cc1 [INDOMETHACIN] | – | 0.3 | – | – | –
4 | 4.41 | – | – | – | 4.60 | CC(C)=CCC1=C(O)C(C(=O)CC(C)C)=C(O)C(CC=C(C)C)(CC=C(C)C)C1=O [LUPULONE] | – | – | – | – | 50
